# Laboratory results taken from the supplement of paper PMC10307832.
# Experiments:
# Assay in all cases: relative viability (nuclei count vs DMSO), 5 days (fraction); higher = more cells survive
# [1] = compound: CCn1c(-c2nonc2N)nc2cnc(Oc3cccc(NC(=O)c4ccc(OCCN5CCOCC5)cc4)c3)cc21 + N=C(N)NC(=N)NCCc1ccccc1 [Phenformin] (partner 250 µM)
# Summary of the method: (§1)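 Relative viability is defined as nuclei in treated wells over nuclei in vehicle wells. Duplicate plates were run and medians reported. Lung cancer cell lines in 1536-well plates were dosed by pin tool one day after seeding, with one drug or with a fixed anchor-drug dose plus five library-drug doses (not always all listed) in √10 steps, and nuclei were counted after 5 days.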
# [2] = compound: CCC1=CN=CN=C1N2CCN(CC2)CC3=NC4=C(N3)C=C(C=C4)C(F)(F)F + O=C(CCCCCCC(=O)Nc1ccccc1)NO [Vorinostat] (partner 1 µM)
# Summary of the method: as §1
# [3] = compound: CCC1=CN=CN=C1N2CCN(CC2)CC3=NC4=C(N3)C=C(C=C4)C(F)(F)F + N=C(N)NC(=N)NCCc1ccccc1 [Phenformin] (partner 250 µM)
# Summary of the method: as §1
# Mirin + Linsitinib = compound: N=C1NC(=O)/C(=C/c2ccc(O)cc2)S1 [Mirin] + C[C@]1(O)C[C@@H](c2nc(-c3ccc4ccc(-c5ccccc5)nc4c3)c3c(N)nccn32)C1 [Linsitinib] (partner 1 µM)
# Summary of the method: as §1
cell line,measurement,setting,value
UMC-11,relative viability,[1]; first compound 0.04 µM,0.304
same,relative viability,[1]; first compound 0.1265 µM,0.25
same,relative viability,[1]; first compound 0.4 µM,0.198
same,relative viability,[1]; first compound 1.265 µM,0.225
same,relative viability,[1]; first compound 4 µM,0.129
same,relative viability,[2]; first compound 0.04 µM,0.357
same,relative viability,[2]; first compound 0.1265 µM,0.359
same,relative viability,[2]; first compound 0.4 µM,0.376
same,relative viability,[2]; first compound 1.265 µM,0.304
same,relative viability,[2]; first compound 4 µM,0.316
same,relative viability,[3]; first compound 0.04 µM,0.327
same,relative viability,[3]; first compound 0.1265 µM,0.3
same,relative viability,[3]; first compound 0.4 µM,0.319
same,relative viability,[3]; first compound 1.265 µM,0.279
same,relative viability,[3]; first compound 4 µM,0.294
same,relative viability,Mirin + Linsitinib; first compound 0.25 µM,1
same,relative viability,Mirin + Linsitinib; first compound 0.7906 µM,0.963
same,relative viability,Mirin + Linsitinib; first compound 2.5 µM,1.07
same,relative viability,Mirin + Linsitinib; first compound 7.906 µM,0.803
same,relative viability,Mirin + Linsitinib; first compound 25 µM,0.66
